melting point [°C]	Structure (SMILES)
96 to 97	COC(=O)c1cc(COS(C)(=O)=O)cc([N+](=O)[O-])c1
170 to 171	CCC(OC)(c1ccc(OCc2cc3ccccc3[nH]c2=O)c(OC)c1)c1nccs1 (stereo unspecified)

The next lines start with the molecule.

Structure (SMILES)	melting point [°C]
COc1ccc(-n2nc3c4c([nH]cc-3c2=O)CCCCCC4)cc1	275 to 277
CC(C)C[C@H](N)C(=O)NCCCCNC(=O)c1ccccc1	146 to 148
O=S1(=O)Cc2ccc(Cl)cc2C(c2cccc(F)c2)=NN1	195 to 198
NS(=O)(=O)c1ccc(-n2nc(C(F)(F)F)cc2-c2ccc(-c3cscn3)cc2)cc1F	168 to 170

— a melting point compilation (Tetko et al.; mined from patent text by program, amines drawn as free bases though some values may be those of a salt)
